tested on: E. multilocularis metacestodes; experiment: PGI assay: phosphoglucose isomerase release from damaged metacestodes; type: cell-based, Echinococcus multilocularis; conditions: 10 μM, 5 days, single wells, relative to DB1127 (10 μM)
Procedure: The preparation of E. multilocularis metacestode material (strain H95) from intraperitoneally (i.p.) infected BALB/c mice was performed as described earlier. Metacestode vesicles were used for in vitro drug screening when they reached 2 to 4 mm in diameter.
For screening of the Malaria Box against E. multilocularis metacestodes, the PGI screening assay was applied that measures the release of the enzyme phosphoglucose isomerase (PGI) upon physical impairment of metacestodes. The screening setup was done in 24 well plates as described by Stadelmann et al. For initial screening, each drug was applied at 10 μM to metacestodes in single wells. As a positive control-drug, the dicationic diguanidino compound DB1127 (10 μM) was used and 0.1% DMSO was added as negative control. Metacestodes were cultured in the presence of the compounds for 5 days, after which PGI release was quantified exactly as stated in Stadelmann et al. […] Averages, standard deviations and EC50 values were calculated in Microsoft Excel 2010.

Row | SMILES | PGI (% of DB1127 at 10 uM)
1 | OC(Cn1nnc2ccccc21)Cn1c2ccc(Br)cc2c2cc(Br)ccc21 (centres unmarked) [MMV666025] | 1.46%
2 | Cc1cc(C)cc(Nc2cc(C)nc3nc(C(F)(F)F)nn23)c1 [MMV011259] | -21.18%
3 | COc1cc(SC)ccc1C(=O)N1CCCC(C)C1 (centres unmarked) [MMV056726] | 16.15%
4 | COc1ccc(C=C2SC(=N)N(c3ccccc3OC)C2=O)cc1 [MMV666691] | -41.85%
5 | Cc1ccc(C)c(Cn2c(N3CCC(C(=O)NCc4cccs4)CC3)nc3ccccc32)c1 [MMV019741] | -17.48%
6 | COc1ccc(-c2nonc2NC(=O)c2cccc(Cl)c2)cc1OC [MMV020660] | -20.61%
7 | O=C(NC1CCN(Cc2ccccc2)CC1)c1cc(-c2ccncc2)nc2ccc(Cl)cc12 [MMV020275] | -18.74%
8 | c1ccc(/C2=N/c3ccccc3/N=C(/c3ccccc3)c3ccccc32)cc1 [MMV007113] | 13.66%
9 | C=CC12CCN(CC1)C(C(O)c1ccnc3ccc(OC)cc13)C2.Cl (centres unmarked) [MMV665782] | -43.49%
10 | CN(C)c1ccc(C=Cc2nc(=O)c3ccccc3o2)cc1 [MMV006309] | 24.63%
11 | Cc1ccc(Nc2nc(NCCO)c3ccccc3n2)cc1C [MMV001038] | 16.86%
12 | CSc1ccccc1C(=O)Nc1nc(-c2ccccn2)cs1 [MMV001246] | -29.53%
13 | CCCCN(CCCC)S(=O)(=O)c1ccc(NC(=O)c2ccco2)cc1 [MMV007881] | -23.46%
14 | CCOC(=O)C1=CN(C)C=C(C(=O)OCC)C1c1cc(Br)c(OCC)c(OC)c1 [MMV006656] | 16.40%
15 | COc1ccc(C=C2SC(Nc3ccc(F)cc3)=NC2=O)c(OC)c1 [MMV084434] | 7.76%
16 | COc1ccc(C(=O)NC(c2ccc(Cl)cc2Cl)c2cc(Cl)c3cccnc3c2O)cc1 (centres unmarked) [MMV666054] | 1.08%
17 | CCC(c1ccccc1)c1nn2c(-c3cccs3)nnc2s1 (centres unmarked) [MMV665876] | -39.84%
18 | O=C(Nc1ccc(CN2CCOCC2)cc1)c1ccc(-c2cc(Cl)ccc2Cl)o1 [MMV020651] | -24.05%
19 | CCn1c(CN2CCN(Cc3ccccc3)CC2)nc2cc(NC(=O)c3cccs3)ccc21 [MMV020439] | -13.64%
20 | O=c1nc(C=Cc2ccc(Cl)cc2)oc2ccccc12 [MMV007977] | 41.38%
21 | COc1cccc(Nc2nc(N)c3ccccc3n2)c1.Cl [MMV019199] | -26.29%
22 | CC1CC2=C(CC1CNCCCN(C)C)C(C)(C)CCC2 (centres unmarked) [MMV665830] | -3.36%
23 | COc1cc(-c2nc(-c3ccccc3)c(-c3ccccc3)[nH]2)cc(OC)c1O [MMV020750] | 7.02%
24 | CCC1(C)CC(CCNCc2ccccc2O)(c2ccc(C)cc2)CCO1 (centres unmarked) [MMV019406] | -21.13%

Row | SMILES | PGI (% of DB1127 at 10 uM)
25 | COc1ccc(-c2cc3c(nn2)-c2ccccc2C3=O)cc1 [MMV666026] | -10.04%
26 | COc1ccc(CNC2CCN(c3ccc(NC(=O)c4cccc(Cl)c4)cc3)CC2)cc1OC [MMV666067] | -35.43%
27 | COc1cc2cc(C(=O)Nc3ccccc3)c(N)nc2cc1OC [MMV006767] | -7.82%
28 | CCC(O)c1ccc(Br)cc1NC(=O)c1cccc(Cl)c1 (centres unmarked) [MMV020654] | -1.89%
29 | O=C(Nc1ccc(-c2nc3cc4ccccc4cc3[nH]2)cc1)c1cccc(Br)c1 [MMV019241] | -30.92%
30 | Oc1ccc(Br)cc1CN1CCN(Cc2ccc(Cl)cc2)CC1 [MMV665809] | -23.13%
31 | Cc1cc(C)c2c(c1)OCN(Cc1ccccc1Cl)C2 [MMV006558] | -21.27%
32 | CCOc1cc(Br)c(C(C)NC(=O)c2cccc(OC)c2)cc1OCC (centres unmarked) [MMV665796] | -1.06%
33 | CN(C)c1ccc(N2C(N)=NC(N)=NC2(C)C)cc1 [MMV667487] | -14.53%
34 | O=c1nc(C=Cc2ccc(Br)cc2)oc2ccccc12 [MMV666599] | 22.37%
35 | O=C(NC1CCCCC1)C(c1cccs1)N(CCc1ccccc1)C(=O)c1ccco1 (centres unmarked) [MMV666106] | 2.06%
36 | CC1CN(C(=O)c2sc3ccccc3c2Cl)CC(C)O1 (centres unmarked) [MMV020492] | -44.30%
37 | COc1ccc(-c2cn3c(C(=O)Nc4ccccc4Cl)c(-c4ccccc4)c4c3n2CCCC4)cc1 [MMV020403] | 8.35%
38 | COc1ccc(C(=O)Nc2ccc3nc(N4CCCCC4)cc(C)c3c2)cc1OC [MMV019758] | -36.67%
39 | COc1ccc(C2c3ccc4ccccc4c3Oc3ncn(CCCn4ccnc4)c(=N)c32)cc1OC (centres unmarked) [MMV667490] | -1.19%
40 | COc1ccc(-c2nc3cc(Cc4ccc5[nH]c(-c6ccc(OC)cc6)nc5c4)ccc3[nH]2)cc1 [MMV007384] | 61.95%
41 | CN(N=O)C1=C(NC2CCCCC2)C(=O)c2ccccc2C1=O [MMV667492] | -5.36%
42 | Cl.c1ccc2c(NCCCCCCNc3c4c(nc5ccccc35)CCCC4)c3c(nc2c1)CCCC3 [MMV019555] | -3.16%
43 | COc1ccc2c(c1)OC(O)(C(F)(F)C(F)(F)F)CC2=O (centres unmarked) [MMV007839] | 50.23%
44 | Cl.Cn1c(=O)n(C)c2cc(CNCCNc3ccnc4cc(Cl)ccc34)ccc21 [MMV665875] | 7.55%
45 | OC(CNC1CCCCC1)Cn1c2ccc(I)cc2c2cc(I)ccc21 (centres unmarked) [MMV665882] | 54.36%
46 | CCOc1cc2c(cc1OCC)C(c1cc(C)c(O)c(C)c1)NCC2.Cl (centres unmarked) [MMV000483] | -22.26%
47 | CCOC(=O)c1cn(CC)c2cc(N3CCCCC3)c(F)cc2c1=O [MMV665827] | -20.29%
48 | Cc1[nH]c(-c2ccc(F)cc2)cc1C(=O)NC1CCN(Cc2ccccc2)CC1 [MMV019738] | 12.98%

Row | SMILES | PGI (% of DB1127 at 10 uM)
49 | CCCCNCC(O)(c1ccc(Cl)cc1)c1ccc(Cl)cc1 [MMV665929] | -0.59%
50 | Cc1cc(Nc2ccc3ccccc3c2)n2ncnc2n1 [MMV011099] | -50.58%
51 | CC(Oc1ccc(NC(=O)c2cccs2)cc1)C(=O)c1ccc(Cl)cc1 (centres unmarked) [MMV665886] | 2.30%
52 | CCOc1ccc(CN2CCN(CC(O)COc3ccc(OCC(O)CN4CCN(Cc5ccc(OCC)cc5)CC4)cc3)CC2)cc1 (centres unmarked) [MMV007092] | -3.58%
53 | Cc1ccccc1OCCSc1nc2ccc(NC(=O)c3ccccc3)cc2s1 [MMV007577] | -17.47%
54 | CCOC(=O)c1c[nH]c2ccc(CC)cc2c1=O [MMV007116] | 80.46%
55 | CC(C)(C)CC(C)(C)NCC(O)COc1ccc2c(c1)CCC2.Cl (centres unmarked) [MMV665817] | -44.11%
56 | CCN(CC)CCCNc1ccnc2cc3ccccc3cc12 [MMV665783] | -52.95%
57 | CCCCCCc1cc2cc(-c3csc(C=Cc4ccccc4)n3)c(=O)oc2cc1O [MMV666692] | -4.22%
58 | O=C(NCC(c1ccsc1)N1CCCCCC1)c1ccc(C(F)(F)F)cc1 (centres unmarked) [MMV396672] | -34.18%
59 | CCOc1c(Cl)cc(CNC(C)C(O)c2ccccc2)cc1OC (centres unmarked) [MMV665857] | -30.92%
60 | O=C(Nc1ccc(Cl)cc1C(=O)Nc1ccncc1)c1ccc(Cl)cc1Cl [MMV666057] | -78.23%
61 | Cc1c(C)n(Cc2ccc(F)cc2)c2ccc(C(=O)NCc3ccco3)cc12 [MMV008149] | -33.19%
62 | CCOc1cccc(C(=O)Nc2ccc(-c3nc4ccccc4[nH]3)cc2)c1 [MMV019202] | -27.17%
63 | O=C(Nc1ccc(N2CCN(Cc3ccccc3)CC2)cc1)c1cccs1.O=C(O)C(F)(F)F [MMV019670] | -9.43%
64 | Cl.N=c1n(CCN2CCCCC2)c2ccccc2n1CC(O)c1cccc(Br)c1 (centres unmarked) [MMV665902] | -8.42%
65 | COc1ccc(Nc2nc(NCc3ccccc3)c3ccccc3n2)cc1 [MMV000963] | 109.36%
66 | OC1CCCCC1C1(NC(=S)Nc2ccccc2)CCCCC1 (centres unmarked) [MMV665980] | -9.51%
67 | CCCCCCc1cc2cc(-c3nc4ccccc4[nH]3)c(=Nc3ccccc3C)oc2cc1O [MMV666597] | -1.88%
68 | Oc1ccc(Cl)cc1CNc1nc2ccccc2[nH]1 [MMV665850] | -85.60%
69 | N#Cc1nc(Cc2cccc3ccccc23)oc1N1CCN(C(c2ccccc2)c2ccccc2)CC1 [MMV396726] | -6.81%
70 | COc1ccccc1N1C(=N)SC(=Cc2ccc(OCc3ccccc3F)cc2)C1=O [MMV007199] | -51.03%
71 | O=C(Nc1cccc(-c2nc3ccccc3[nH]2)c1)c1cccc(NC(=O)c2ccco2)c1 [MMV665883] | 21.02%

From article PMC4788259 (PLoS Neglected Tropical Diseases, 2016)
